From patent US20140105948A1, “STABILITY OF PEROXIDE IN ORAL CARE COMPOSTIONS” (INTERCONTINENTAL GREAT BRANDS LLC, priority 2011, published 2014)
Where a name gives a salt, the structure may show the parent alone. Residues, ends and D or L forms follow the SMILES beside them.

Assays:
[1] = Shelf life stability of encapsulated carbamide peroxide in chewing gum (Example 1); assay type: physicochemical; conditions: without encapsulation, after two weeks of storage
Procedure: The stability of various encapsulants for carbamide peroxide in chewing gum was measured. As explained above, peroxides in general are known to be problematic in the shelf life of chewing gums, as they have a tendency to break down gum base, rendering it ineffective and useless. Chewing gums including various encapsulated carbamide peroxides were prepared and were stored for eight weeks at room temperature and at 37° C. Solid carbamide peroxide was encapsulated in the following encapsulating materials: (1) ethyl cellulose (25% encapsulant weight); (2) polyvinyl acetate B30 (30% encapsulant weight); (3) gum arabic (30% encapsulant weight); (4) mannitol (30% encapsulant weight); and (5) shellac (30% encapsulant weight). These encapsulated particles were used in formulating pieces of chewing gum and were measured for shelf life stability. In addition, a control chewing gum was prepared, which included non-encapsulated (“free”) carbamide peroxide within the gum base. The amount of carbamide peroxide obtained after the study was measured. […] At room temperature after eight weeks, chewing gums including this encapsulated carbamide peroxide had approximately 95% of the carbamide peroxide remaining. Even after eight weeks at elevated temperatures, these products had approximately 80% of the carbamide peroxide remaining.

[2] = Stability of carbamide peroxide stored with sweeteners; assay type: physicochemical; conditions: for % Carbamide Peroxide recovered after 4 weeks of aging with sweetener at 25 C.: carbamide peroxide stored with sweetener, four weeks; for tendency of sweetener to react with the peroxide: result in words
Procedure: The present inventors have compared the action of certain sweeteners on the effect with carbamide peroxide, with surprising results. Carbamide peroxide was stored with three sweeteners, and stored for four weeks at 25° C. to determine stability. The three sweeteners included aspartame, acesulfame potassium and sucralose. The percentage of carbamide peroxide recovered after four weeks was measured.

| Molecule | carbamide peroxide decomposed in chewing gum product [1] | % Carbamide Peroxide recovered after 4 weeks of aging with sweetener at 25 C. [2] [%] | % Carbamide Peroxide recovered after 4 weeks of aging with sweetener at 25 C. ([2]; listed as aspartame) | tendency of sweetener to react with the peroxide [2] |
| --- | --- | --- | --- | --- |
| NC(N)=O.OO [carbamide peroxide] | nearly all of the carbamide peroxide is decomposed |  |  |  |
| COC(=O)[C@H](Cc1ccccc1)NC(=O)[C@@H](N)CC(=O)O [Aspartame, L-aspartyl-L-phenylalanine methyl ester] (H-Asp-Phe-OMe) |  | 78 | significant reduction | have a tendency to react with the peroxide |
| OC[C@H]1O[C@H](O[C@]2(CCl)O[C@H](CCl)[C@@H](O)[C@@H]2O)[C@H](O)[C@@H](O)[C@H]1Cl [Sucralose] |  | 100 |  | do not react with the peroxide |
| CC1=CC(=O)NS(=O)(=O)O1 [Ace-K, potassium salt of 3,4-dihydro-6-methyl-1,2,3-oxathiazine-4-one-2,2-dioxide] |  | 92 |  |  |
| OCC(O)CO [glycerin] |  |  |  | have a tendency to react with the peroxide |
| OC[C@@H](O)[C@@H](O[C@H]1O[C@H](CO)[C@@H](O)[C@H](O)[C@H]1O)[C@H](O)[C@@H](O)CO [maltitol] |  |  |  | do not react with the peroxide |
| isomalt |  |  |  | do not react with the peroxide |
